“And” between values parts separate entries of the source, which are not always exact repeats. Equal entries are not always repeated. The source made the active and inactive calls.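 The calls were made as follows: active = compounds whose IC50 is 20 micromolar or lower, counted as confirmed SKN-1 reporter blockers; inactive = the rest.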
system: C. elegans VP596 Pgst-4::GFP/RFP ratio, acrylamide, 24 h; assay: C. elegans gst-4 reporter suppression, concentration series – whole organism, GFP/RFP fluorescence ratio, set 2, strain VP596, SKN-1 inhibitor project, dose response (AID 651563);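 also: red signal is driven by the dop-3 promoter and serves as the normalizer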

| SMILES | IC50 |
| --- | --- |
| O=C(NC(=S)Nc1ccc(CN2CCCCC2)cc1)c1cc2ccccc2o1 | 94.9 µM (inactive) |
| Brc1ccc(-c2cn3ccccc3n2)s1 | 18.1 µM |
| C(=C\c1nc(-c2ccncc2)no1)/c1ccccc1 | 19.1 µM |
| Brc1ccc(-c2nc(-c3ccccc3)no2)o1 | 2.54 µM |
| O=C(Nc1nc(-c2ccc(Cl)s2)cs1)c1ccco1 | 15.5 µM |
| Clc1ccc(-c2nc3cc(CN4CCCCC4)ccc3o2)cc1 | 87.7 µM (inactive) |
| O=[N+]([O-])c1ccc2cn(-c3ccccc3)nc2c1 | 2.81 µM |
| Clc1ccccc1-c1nc(-c2ccncc2)no1 | 18.4 µM and > 100 µM (inactive) |
| Clc1ccc(OCc2nc(-c3ccncc3)no2)c(Br)c1 | 31.2 µM (inactive) |
| CCCCCCCCNc1ncnc2ccccc12 | > 100 µM (inactive) |
| c1ccc(N2CCN(c3cnc4ccccc4n3)CC2)cc1 | > 100 µM (inactive) |
| Cc1ccc(NC(=O)c2ccc(F)cc2F)cc1 | > 100 µM (inactive) |
| O=C(NCc1ccncc1)c1ccc(-c2ccc(F)c(F)c2)c2ccoc12 | 29.8 µM (inactive) |
| Clc1ccc(N2CCN(c3ccnc(Cl)n3)CC2)cc1 | 17.7 µM |
| CC(C)(C)N=C1NN=C(c2ccc(Cl)cc2)CS1 | 25.9 µM (inactive) |
| Clc1ccc(C=Cc2ccccn2)c(Cl)c1 | 11.9 µM |
| CSc1ccc(-c2cc(=O)c3ccccc3o2)cc1 | 17.5 µM |
| O=C(Nc1nccs1)c1ccc2ccccc2c1 | 23.8 µM (inactive) |
| O=C(Nc1nc(-c2ccc(Cl)s2)cs1)c1cccs1 | 6.63 µM |
| O=C1NC2C(=CC(O)C(O)C2O)c2cc3c(cc21)OCO3 (centres undefined) | > 100 µM (inactive) |
| O=C(/C=C/Nc1ccc(F)cc1F)c1ccco1 | 22.7 µM (inactive) |
| COc1cc(CNC2CCCC2)cc(Cl)c1OCc1ccc(F)cc1 | 11.8 µM |
| O=C(Nc1nccs1)c1ccc2ccccc2n1 | 15.8 µM |
| Cc1nc2ccccc2cc1OCc1ccc(Cl)cc1 | > 100 µM (inactive) |
| O=[N+]([O-])c1ccc(NCc2ccc(Cl)cc2)nc1 | 18.1 µM |

| SMILES | IC50 |
| --- | --- |
| Cc1cc(OCc2cccc(Cl)c2)c(C)cc1CN1CCOCC1 | 15.2 µM |
| Clc1ncc(CSc2ccccc2)s1 | > 100 µM (inactive) |
| COc1cc(SC)ccc1C(=O)Nc1nccs1 | > 100 µM (inactive) |
| CCOc1cc(CNCCSc2nnnn2C)cc(Br)c1OCc1ccc(F)cc1 | 2.73 µM |
| CC(C)c1ccc(-c2nc3ccccc3s2)cc1 | > 100 µM (inactive) |
| CN(C)CC(O)c1ccc(C=Cc2ccc(Cl)cc2)cc1 (centres undefined) | 18.4 µM |
| Brc1ccc(CSc2nnc(-c3ccco3)o2)cc1 | 7.32 µM |
| Fc1ccc(Cn2nnc(-c3ccc(CN4CCOCC4)cc3)n2)cc1 | 19.9 µM |
| CCN(CC)c1ccc(/C=C2/C(=O)c3ccc(C(=O)O)cc3C2=O)cc1 | 11.9 µM |
| Brc1ccc(-c2nc(-c3ccccn3)no2)o1 | 35.8 µM (inactive) |
| C(=C\c1ccc2ccccc2n1)/c1ccccc1 | > 100 µM (inactive) |
| CC(=O)NS(=O)(=O)c1ccc(Nc2ccc([N+](=O)[O-])c3nonc23)cc1 | 57.9 µM (inactive) |
| Cc1c(N2C(=O)/C(=C\c3ccc(N(C)C)cc3)N(C)C2=S)c(=O)n(-c2ccccc2)n1C | 16.9 µM |
| O=C(CC(O)(C(F)(F)F)C(F)(F)F)Nc1ccc(Cl)c(Cl)c1 | 27.9 µM (inactive) |
| Clc1ccc(-c2nnc(-c3ccco3)o2)cc1 | 15.8 µM |
| Brc1ccc2nc(N3CCCC3)sc2c1 | 25.8 µM (inactive) |
| O=C(/C=C/c1ccc(Cl)cc1)Nc1ccc(CN2CCOCC2)cc1 | 23.3 µM (inactive) |
| c1ccc2oc(SCc3nc4ccccc4s3)nc2c1 | 27.4 µM (inactive) |
| CCn1nccc1C(=O)Nc1ccc(Cl)c(Cl)c1 | 87.8 µM (inactive) |
| O=C(/C=C/Nc1ccc(F)cc1F)c1cccs1 | 5.04 µM |
| c1ccc(-c2cnc(-c3ccccc3)nn2)cc1 | > 100 µM (inactive) |
| C(=C\c1nnc(-c2cccs2)o1)/c1ccccc1 | 15.9 µM |
| Cc1ccc(Nc2nc(-c3cccs3)cs2)nc1 | 30.2 µM (inactive) |
| CC1(C)c2ccccc2C(=O)c2ccccc21 | > 100 µM (inactive) |
| Clc1ccc2nc(-c3ccc(Br)s3)cn2c1 | 21.6 µM (inactive) |

| SMILES | IC50 |
| --- | --- |
| O=c1c2ccccc2ccc2ccccc12 | 33.8 µM (inactive) |
| O=C1/C(=C/c2ccccc2)CCCc2ccccc21 | 31.6 µM (inactive) |
| C=CCSc1ncc(-c2ccccc2)cn1 | 27.2 µM (inactive) |
| COC(=O)c1cccc(CC2(C)C(=O)Nc3ccc(OC(F)(F)F)cc32)c1 (centres undefined) | > 100 µM (inactive) |
| c1ccc(-c2csc(Nc3ccccn3)n2)cc1 | 16.8 µM |
| CCCCOc1ccc(C(=O)OC2CC(C)N(C)CC2C)cc1 (centres undefined) | 29.2 µM (inactive) |
| Clc1ccccc1-c1nnc(-c2ccccc2Cl)o1 | 1.79 µM |
| Clc1ccc(-c2nc(-c3ccncc3)no2)c(Cl)c1 | > 100 µM (inactive) |
| Cn1c(=O)c2c(-c3ccccc3)n(-c3ccc(N)cc3)cc2n(C)c1=O | 23.5 µM (inactive) |
| COc1ccc(C(=O)Nc2nc(-c3cccs3)cs2)cc1 | 24.6 µM (inactive) |
| COc1cc(CNC(C)(C)CO)cc(Br)c1OCc1ccc(Cl)cc1 | 19.7 µM |
| O=C(/C=C/Nc1ccc(Br)cc1F)c1ccco1 | 2.19 µM |
| Clc1ccc(-c2nnc(SCc3ccon3)o2)c(Cl)c1 | > 100 µM (inactive) |
| Fc1ccc(-c2csc(Nc3ccccn3)n2)cc1 | 7.01 µM |
| O=C(Sc1ccc(Cl)cc1)c1ccccn1 | > 100 µM (inactive) |
| Fc1ccccc1OCCSc1nc2ccccc2o1 | 60.7 µM (inactive) |
| Brc1ccc(-c2nnc(-c3ccco3)o2)cc1 | 10.8 µM |
| CC1=NOC(=O)/C1=C/c1ccc(-c2ccc(Cl)cc2)o1 | > 100 µM (inactive) |
| CC(C)c1ccc(C(=O)Nc2ccc(CN3CCOCC3)cc2)cc1 | 4.79 µM |
| O=[N+]([O-])c1ccc(OCc2cnc(Cl)s2)cc1 | 13.7 µM |
| O=C(Nc1ccc(OC(F)F)c(Cl)c1)c1ccccn1 | 5.09 µM |
| Cc1ccc(CSc2nnc(-c3ccco3)o2)cc1 | 23.8 µM (inactive) |
| Cc1oc(-c2ccc(-c3ccccc3)cc2)nc1CN(C)C1CCOC1 (centres undefined) | 20.6 µM (inactive) |
| c1csc(-c2nc(-c3ccncc3)no2)c1 | 36.1 µM (inactive) |
| CSc1cccc(NC(=O)c2cccc3cccnc23)c1 | 12.7 µM |

| SMILES | IC50 |
| --- | --- |
| Clc1ccc(-n2nnc(-c3cccnc3)n2)cc1Cl | > 100 µM (inactive) |
| O=C1/C(=C/c2cccs2)CCc2ccccc21 | 34.3 µM (inactive) |
| CC/C(=C\c1ccc(Cl)cc1)c1ccncc1 | 28.2 µM (inactive) |
| Fc1ccc(CSc2ncnc3ccccc23)cc1 | 24.2 µM (inactive) |
| O=C(Nc1nc(-c2ccccc2)cs1)c1cccs1 | 21.9 µM (inactive) |
| CCCn1nc2cc(C(=O)NCc3ccc(OC(F)(F)F)cc3)ccc2c1OCC | 25.4 µM (inactive) |
| c1ccc(Nc2nc(-c3cccs3)cs2)nc1 | 21.7 µM (inactive) |
| Cc1ccc(C=Cc2ccccn2)cc1 | > 100 µM (inactive) |
| c1ccc(-c2nc3cc4ccccc4cc3[nH]2)nc1 | 16.1 µM |
| O=C(/C=C/c1ccccc1)Nc1ccc(CN2CCOCC2)cc1 | 19.3 µM |
| c1ccc(SCc2cc(-c3ccccc3)no2)cc1 | 12.8 µM |
| Clc1ccc(Cn2nnc(-c3ccccc3)n2)cc1 | 20.9 µM (inactive) |
| O=C(/C=C/Nc1ccccc1F)c1cccs1 | 27.9 µM (inactive) |
| O=C(Nc1nc(-c2ccc(Cl)s2)cs1)c1ccccc1 | 13.2 µM |
| c1ccc(-c2csc(-c3cccnc3)n2)cc1 | > 100 µM (inactive) |
| COc1c(C(=O)Nc2nccs2)ccc2ccccc12 | 41.8 µM (inactive) |
| Clc1ccc(C=Cc2ccccn2)cc1 | 10.4 µM |
| COc1ccc2c(c1)OC/C(=C/c1cccs1)C2=O | 16.8 µM |
| CCOc1cc(CNC2CCCC2)cc(Cl)c1OCc1ccc(F)cc1 | 2.85 µM |
| CCCCCNC(=O)c1ccccc1SC | 81.5 µM (inactive) |
| O=C(C=Cc1ccccc1)CC(c1ccccc1)N1CCOCC1 (centres undefined) | 10.2 µM |
| Fc1ccc(COc2ccc(-c3nnco3)cc2)cc1 | 7.45 µM |
| Fc1ccc(Nc2cccc3nccnc23)cc1 | 47.2 µM (inactive) |
| O=C(/C=C/c1cccs1)c1ccc(Br)cc1 | 20.8 µM (inactive) |
| C=CCSc1nnc(-c2ccc(Cl)cc2Cl)o1 | 25.2 µM (inactive) |

| SMILES | IC50 |
| --- | --- |
| Cc1ccc(-c2noc(-c3cccs3)n2)cc1 | 12.4 µM |
| CC1=NN(c2ccccc2)C(=O)/C1=C\C=C1/N(C)c2ccccc2C1(C)C | 14.4 µM |
| O=C(Nc1ccc(Cl)c(C(F)(F)F)c1)c1ccco1 | 64.4 µM (inactive) |
| O=C(c1cccs1)c1ccc(-c2cccs2)s1 | 9.1 µM |
| CCN(CC)c1ccc(/C=C2\C(=O)c3ccc(C(=O)O)cc3C2=O)cc1 | 12.2 µM |
| Cc1ccc(N=C/C(C(=O)C(F)(F)F)=C(\O)c2ccco2)cc1Cl | 14.3 µM |
| O=[N+]([O-])c1ccc(Nc2ccccc2)cc1 | 12.2 µM |
| Clc1cccc(CSc2ncn(-c3ccccc3)n2)c1 | 37.5 µM (inactive) |
| O=c1cc(-c2ccc(F)cc2)oc2ccccc12 | 19.2 µM |
| c1ccc(-n2nnc(-c3nccs3)n2)cc1 | > 100 µM (inactive) |
| N/C(=N\OC(=O)c1cc(Br)ccc1Cl)c1ccccn1 | 53.5 µM (inactive) |
| Clc1ccc(OCc2cnc(Cl)s2)cc1 | 23.1 µM (inactive) |
| O=C(C=Cc1ccco1)c1ccc2ccccc2c1 | 31.7 µM (inactive) |
| Fc1ccc(-c2csc(-c3ccncc3)n2)cc1 | 5.86 µM |
| Brc1ccc2oc(-c3ccn[nH]3)cc2c1 | 10.3 µM |
| Fc1ccc(-c2nc3ccc(Cl)cn3c2Cc2ccsc2)cc1 | > 100 µM (inactive) |
| O=C(Nc1nc(SCc2ccc(F)cc2)ns1)c1ccco1 | > 100 µM (inactive) |
| O=C(Nc1ccc(OC(F)F)c(Cl)c1)c1cccc(OC(F)F)c1 | > 100 µM (inactive) |
| Fc1ccc(COc2ccc(-c3nnco3)cc2)c(Cl)c1 | 6.4 µM |
| Clc1ccc(-c2cc(CSc3ccccc3)on2)cc1 | > 100 µM (inactive) |
| Brc1ccc(-c2nnc(-c3cccnc3)o2)cc1 | > 100 µM (inactive) |
| Cc1cc(-c2nc3cc(F)ccc3s2)ccc1N | 18.3 µM |
| Cc1ccccc1-c1noc(-c2cccs2)n1 | 9.31 µM |
| Cc1nc2ccccc2cc1OCc1ccc(F)cc1 | 24 µM (inactive) |
